# Values quoted from earlier work as cited in patent US8529954B2, “Composition based on gamma-hydroxybutyric acid” (Debregeas et Associes Pharma, priority 2008, dated 2013).
# Structures can show the parent of a compound that is named as a salt.
# Columns and labels:
# [1] = approximately
smiles,measurement,setting,value
"O=C(O)CCCO [GHB, Gamma-hydroxybutyric acid]",stability in an acidic environment,,unstable
"O=C(O)CCCO [sodium hydroxybutyrate, sodium salt of 4-hydroxybutyric acid]",maximum peak after its administration (time of peak),[1]; absorbed by the gastroenteric system,30 to 45 min
same,half life,[1],20 to 25 min
same,time in which it is eliminated,[1],4 to 5 h
